Experimental findings from ChEMBL document CHEMBL1201862, “PubChem BioAssay data set” (2004) are described below.

Among the test systems are NCI-H226; HCT-116; KM12; SNB-75; UACC-257; UO-31; HT-29; NCI-H522; HCC 2998; SNB-19; U-251; OVCAR-3; 786-0; RXF 393; M14; RPMI-8226; SK-OV-3; SF-295; CCRF-CEM; SF-539.
Assay in all cases: DTP human tumour cell line panel, 48 h

Each structure is given as a SMILES string. Values joined by “and” are separate entries in the source; they are usually repeats but may differ in a detail not shown here. Identical values can stand only once.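 Interpolation was linear, between the two tested concentrations surrounding the appropriate level; five concentrations were tested over 48 hours in 96-well plates. GI50 marks 50% less growth.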 Active and inactive are the calls of the source. Cut-off read from the data, not from the text of the source: active = GI50 up to about 1.1 µM and inactive = higher. Bounds are passed on as bounds.

The GI50 is the concentration giving 50% growth inhibition. Take `O=C1C(c2c(O)[nH]c3ccc([N+](=O)[O-])cc23)=Nc2ccccc21`: the GI50 with NCI-H226 was > 100 µM (inactive); in the assay with HCT-116, > 100 µM (inactive); in the assay on KM12, > 100 µM (inactive); in the assay on SNB-75 it was 13.8 µM (inactive); with UACC-257 it was > 100 µM (inactive); with UO-31 it was > 100 µM (inactive). In addition, the GI50 was > 100 µM (inactive) in the assay on HT-29; > 100 µM (inactive) in the assay on NCI-H522; > 100 µM (inactive) in the assay on HCC 2998; 49.8 µM (inactive) in the assay with SNB-19; 21.2 µM (inactive) in the assay with U-251; > 100 µM (inactive) in the assay on OVCAR-3. Moreover, the GI50 in the assay on 786-0 was 59.8 µM (inactive); with RXF 393, 13 µM (inactive); in the assay with M14 it was > 100 µM (inactive); in the assay on RPMI-8226 it was > 100 µM (inactive); in the assay on SK-OV-3, > 100 µM (inactive); with SF-295, 43 µM (inactive). In the assay with CCRF-CEM, the GI50 was > 100 µM (inactive).
On to `COC(=O)C(C(=O)C(=O)Nc1ccc([N+](=O)[O-])cc1)c1nc2ccc([N+](=O)[O-])cc2nc1O` (configuration not stated), for which the GI50 in the assay with NCI-H226, with HCT-116, in the assay on KM12, with SNB-75, in the assay on UACC-257 and with UO-31 was > 100 µM (inactive) in each case. The GI50 with HT-29 is > 100 µM (inactive); in the assay on NCI-H522 it was 14.1 µM (inactive); in the assay with HCC 2998, > 100 µM (inactive); in the assay on SNB-19, > 100 µM (inactive); in the assay on U-251, > 100 µM (inactive); in the assay with OVCAR-3, > 100 µM (inactive). The GI50 was > 100 µM (inactive) with SF-539; > 100 µM (inactive) in the assay with 786-0; > 100 µM (inactive) in the assay with RXF 393; 76.6 µM (inactive) in the assay on M14; > 100 µM (inactive) in the assay on SK-OV-3; > 100 µM (inactive) with SF-295. The GI50 with CCRF-CEM is 55.2 µM (inactive).
Take `COc1ccc(C2Oc3c(OC)cc(CCCO)cc3C2CO)cc1OC` (configuration not stated): the GI50 is > 100 µM (inactive) in the assay on NCI-H226; > 100 µM (inactive) in the assay on HCT-116; > 100 µM (inactive) and 79.3 µM (inactive) in the assay on KM12; > 100 µM (inactive) and 77.3 µM (inactive) in the assay with SNB-75; > 100 µM (inactive) in the assay on HT-29; 86.7 µM (inactive) with NCI-H522. For the same compound, the GI50 in the assay on HCC 2998, in the assay with SNB-19, in the assay with U-251, in the assay with OVCAR-3, in the assay with SF-539 and in the assay on 786-0 was > 100 µM (inactive) each time. Moreover, the GI50 with RXF 393 was > 100 µM (inactive); in the assay with M14 it was > 100 µM (inactive); with SK-OV-3, > 100 µM (inactive); with SF-295 it was 50.4 µM (inactive) and 70.8 µM (inactive).
`COC(=O)C1=C(C(=O)OC)C(Cc2ccccc2)(OO)OC1=O` (configuration not stated): the GI50 in the assay on NCI-H226 is 5.46 µM (inactive); in the assay with HCT-116, 3.35 µM (inactive); in the assay with KM12, 19.1 µM (inactive); with SNB-75 it was 9.33 µM (inactive); with UACC-257, 4.38 µM (inactive); with UO-31 it was 5.18 µM (inactive). Further, the GI50 with HT-29 was 3.17 µM (inactive); in the assay with NCI-H522 it was 2.32 µM (inactive); in the assay with HCC 2998, 60.1 µM (inactive); with SNB-19, 22 µM (inactive); in the assay on U-251, 12.8 µM (inactive); in the assay on OVCAR-3, 4.33 µM (inactive). In addition, the GI50 was 3.15 µM (inactive) with SF-539; 2.95 µM (inactive) with 786-0; 4.94 µM (inactive) with RXF 393; 3.8 µM (inactive) in the assay with M14; 29 µM (inactive) in the assay on SK-OV-3; 29.5 µM (inactive) in the assay with SF-295. In the assay with CCRF-CEM, the GI50 was 1.04 µM (active).
As to `NC(=O)CCC(Nc1c2ccccc2nc2ccccc12)C(=O)O` (configuration not stated), the GI50 in the assay with NCI-H226 is > 100 µM (inactive); in the assay on HCT-116, 91 µM (inactive); in the assay with KM12, > 100 µM (inactive); in the assay on SNB-75, > 100 µM (inactive); in the assay with UACC-257 it was 65.8 µM (inactive); in the assay on HT-29, 93.1 µM (inactive). Moreover, the GI50 is > 100 µM (inactive) in the assay with NCI-H522; > 100 µM (inactive) in the assay with HCC 2998; > 100 µM (inactive) in the assay on U-251; 56.8 µM (inactive) with OVCAR-3; > 100 µM (inactive) in the assay on SF-539; > 100 µM (inactive) with 786-0. The GI50 with RXF 393 was > 100 µM (inactive); with M14, > 100 µM (inactive); in the assay with RPMI-8226, 17.2 µM (inactive); in the assay with SF-295, > 100 µM (inactive); in the assay on CCRF-CEM, > 100 µM (inactive).
As to `CC(=O)OCC1OC(n2c3c(cc(C#N)c2=S)CCCCCC3)C(OC(C)=O)C(OC(C)=O)C1OC(C)=O` (configuration not stated), the GI50 in the assay on NCI-H226 was > 100 µM (inactive); in the assay with HCT-116 it was 37.8 µM (inactive); in the assay on KM12 it was > 100 µM (inactive); in the assay with SNB-75, 27.2 µM (inactive); with UACC-257, > 100 µM (inactive); in the assay with UO-31, > 100 µM (inactive). The GI50 is 41.2 µM (inactive) with HT-29; 76.4 µM (inactive) in the assay with NCI-H522; 27.5 µM (inactive) in the assay on HCC 2998; > 100 µM (inactive) with SNB-19; 91 µM (inactive) in the assay with U-251; > 100 µM (inactive) in the assay on OVCAR-3. Further, the GI50 in the assay with SF-539 was > 100 µM (inactive); in the assay on 786-0, 99.8 µM (inactive); with RXF 393, > 100 µM (inactive); with M14 it was > 100 µM (inactive); in the assay on RPMI-8226, 55.5 µM (inactive); in the assay with SF-295 it was > 100 µM (inactive). The GI50 in the assay with CCRF-CEM was 47.3 µM (inactive).
As to `O=C1c2ccccc2N2OC3(N4CCCC4)CCCC3C12c1ccccc1` (configuration not stated), the GI50 in the assay on NCI-H226 is > 100 µM (inactive); with HCT-116, 73.3 µM (inactive); in the assay on SNB-75, > 100 µM (inactive); with UACC-257, 71.6 µM (inactive); in the assay with UO-31, > 100 µM (inactive); in the assay with HT-29 it was > 100 µM (inactive). Moreover, the GI50 with NCI-H522, in the assay on HCC 2998, with SNB-19, in the assay on U-251, with SF-539 and in the assay on 786-0 was > 100 µM (inactive) in each case. In addition, the GI50 is > 100 µM (inactive) with RXF 393; > 100 µM (inactive) in the assay with M14; 62.8 µM (inactive) with RPMI-8226; > 100 µM (inactive) in the assay with SK-OV-3; 86.1 µM (inactive) with SF-295; > 100 µM (inactive) in the assay with CCRF-CEM.
Turning to `COc1ccc2nc3cc(Cl)ccc3c(Sc3ccc([N+](=O)[O-])cc3C)c2c1`, the GI50 in the assay with NCI-H226, in the assay on HCT-116, with KM12, in the assay on SNB-75, in the assay on UACC-257 and with UO-31 was > 100 µM (inactive) each time. The GI50 with NCI-H522, with HCC 2998, in the assay with SNB-19, with U-251, in the assay with OVCAR-3 and in the assay on SF-539 was > 100 µM (inactive) in each case. Also, the GI50 in the assay on 786-0, with RXF 393, with M14, in the assay on SK-OV-3, with SF-295 and in the assay on CCRF-CEM was > 100 µM (inactive) each time.
Turning to `Cc1ccc2[nH]c3c(c2c1)C1CCC(C(C)(C)C)CC1C1C(=O)N(c2ccc(Oc4ccccc4)cc2)C(=O)C31` (configuration not stated), the GI50 with NCI-H226 was 29.4 µM (inactive); in the assay with HCT-116, 18.5 µM (inactive); in the assay on KM12 it was > 100 µM (inactive); in the assay on SNB-75, 2.32 µM (inactive); in the assay on UACC-257, > 100 µM (inactive); in the assay with UO-31 it was 41 µM (inactive). The GI50 in the assay with HT-29 is > 79.6 µM (inactive); in the assay with NCI-H522, 13.2 µM (inactive); with HCC 2998 it was 39.3 µM (inactive); in the assay on SNB-19, 16.2 µM (inactive); in the assay on U-251 it was 5.61 µM (inactive); in the assay on OVCAR-3, 11.5 µM (inactive). Besides, the GI50 in the assay on 786-0 was 4.72 µM (inactive); in the assay with RXF 393, 7.55 µM (inactive); in the assay on M14, 48.8 µM (inactive); in the assay on RPMI-8226, 15.8 µM (inactive); in the assay with SK-OV-3, 17.7 µM (inactive); in the assay on SF-295 it was 26.6 µM (inactive). For the same compound, the GI50 with CCRF-CEM is 2.63 µM (inactive).
With `CC1=C(C(=O)Nc2c(C)cccc2C)C(c2ccc3c(c2)OCO3)C(C(=O)Nc2c(C)cccc2C)=C(C)N1`, the GI50 in the assay on NCI-H226 is 17.5 µM (inactive); in the assay on HCT-116, 14.3 µM (inactive); in the assay on KM12, 15.3 µM (inactive); in the assay with SNB-75, 17.8 µM (inactive); in the assay with UACC-257, 16.6 µM (inactive); in the assay with UO-31, 16.9 µM (inactive). For the same compound, the GI50 with HT-29 is 16.2 µM (inactive); in the assay with NCI-H522, 14.9 µM (inactive); with HCC 2998, 18.1 µM (inactive); in the assay on SNB-19, 15.3 µM (inactive); in the assay on U-251, 15.5 µM (inactive); in the assay with OVCAR-3, 36.3 µM (inactive). The GI50 with SF-539 is 19.2 µM (inactive); in the assay with 786-0, 13.7 µM (inactive); in the assay on RXF 393, 16.5 µM (inactive); with M14, 18.1 µM (inactive); with SK-OV-3, 77.3 µM (inactive); in the assay on SF-295, 16.5 µM (inactive). In addition, in the assay on CCRF-CEM, the GI50 was 7.36 µM (inactive).
Take `C[C@H](Nc1nc(N)c(N=O)c(=O)n1C)C(=O)O`: the GI50 in the assay on NCI-H226, with HCT-116, in the assay on KM12, in the assay with SNB-75, with UACC-257 and with HT-29 was > 10 µM (inactive) in each case. Besides, the GI50 in the assay on NCI-H522, in the assay on HCC 2998, in the assay on SNB-19, with U-251, in the assay with OVCAR-3 and in the assay with SF-539 was > 10 µM (inactive) each time. Moreover, the GI50 in the assay on 786-0, with RXF 393, with M14, with RPMI-8226, in the assay with SK-OV-3 and with SF-295 was > 10 µM (inactive) throughout. In the assay on CCRF-CEM, the GI50 is > 10 µM (inactive).
